Among the data in patent US20110262497A1, “NOVEL EZETIMIBE FORMULATIONS” (LEK Pharmaceuticals D.D., priority 2008, published 2011) are solubility values, retold here.

The nature of this data set: solubility of ezetimibe in water. It is filed as physicochemical.

What is called solubility is how much of the substance goes into solution per volume. Read a low solubility as a poorly soluble substance.

In turn, `O=C1[C@H](CC[C@H](O)c2ccc(F)cc2)[C@@H](c2ccc(O)cc2)N1c1ccc(F)cc1` [ezetimibe, 1-(4-fluorophenyl)-3(R)-[3-(4-fluorophenyl)-3(S)-hydroxypropyl]-4(S)-(4-hydroxyphenyl)-2-azetidinone] came in with a solubility below 10 µg/mL.
